Data published in patent US10131702B2, “Glucagon-GLP-1-GIP triple agonist compounds” (priority 2013, dated 2018).
Read-outs that look alike come from different tables or passages of the source. Numbered stars: 1 amine (or outer) side, 2 acyl side, 3 side chain; on linkers, the order of the positions; unused ones are H or OH. Square brackets hold non-standard residues; d marks the D form. Side chains are listed from the residue outwards. Peptide text beside a SMILES is read from it. * marks the point of attachment. γGlu = O=C(O)[C@H](CCC(=O)[*:2])N[*:1]; Stearoyl = CCCCCCCCCCCCCCCCCC(=O)*; AEEA = NCCOCCOCC(=O)O; Aib = CC(C)(N)C(=O)O

What was measured:
Assay type in all cases: cell-based
[1] = target: T1, human GCG R (Homo sapiens, UniProt P47871); assay: cAMP induction in HEK293 cells expressing human GCG R (AlphaScreen cAMP kit)
T1 construct: expressed in transfected cells
T1 sequence (P47871 26-477): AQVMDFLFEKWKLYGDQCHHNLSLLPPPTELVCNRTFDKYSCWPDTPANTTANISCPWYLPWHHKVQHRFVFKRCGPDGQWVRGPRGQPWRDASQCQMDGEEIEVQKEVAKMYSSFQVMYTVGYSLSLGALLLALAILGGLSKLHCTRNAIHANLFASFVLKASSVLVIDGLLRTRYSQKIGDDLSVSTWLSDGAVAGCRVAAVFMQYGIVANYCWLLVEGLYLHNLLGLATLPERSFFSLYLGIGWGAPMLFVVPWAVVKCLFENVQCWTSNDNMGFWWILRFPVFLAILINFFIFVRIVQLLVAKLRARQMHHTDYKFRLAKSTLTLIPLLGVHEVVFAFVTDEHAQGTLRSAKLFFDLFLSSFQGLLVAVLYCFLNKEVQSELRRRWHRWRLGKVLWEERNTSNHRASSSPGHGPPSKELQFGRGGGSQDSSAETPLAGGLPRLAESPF
Experimental: (§1) Briefly, HEK293 cells expressing the human GIP R, GLP-1 R or GCG R (stable cell lines generated through transfection of the cDNA for human GIP R, GLP-1 R or GCG R and selection of stable clones) were seeded at 30,000 cells/well in 96-well microtiter plates coated with 0.01% poly-L-lysine, and grown for 1 day in culture in 200 μl growth medium (DMEM, 10% FCS, Penicillin (100 IU/ml), Streptomycin (100 μg/ml)). On the day of analysis, growth medium was removed and the cells were washed once with 150 μl Tyrode's buffer (Tyrode's Salts (9.6 g/l), 10 mM HEPES, pH 7.4). […] The Assay buffer was removed and cells are lysed in 80 μl Lysis buffer (0.1% w/v BSA, 5 mM HEPES, 0.3% v/v Tween-20) per well. From each well 10 μl of lysed cells were transferred to a 384-well plate and mixed with 15 μl bead-mix (1 Unit/15 μl anti-cAMP Acceptor Beads, 1 Unit/15 μl Donor Beads, and 1 Unit/15 μl Biotinylated cAMP in Assay Buffer). The plates were mixed and incubated in the dark for an hour at room temperature before measuring using an Envision™ plate reader (Perkin-Elmer).
(§2) The resulting cAMP curves were plotted as absolute cAMP concentrations (nM) over log (test compound concentration) and analyzed using the curve fitting program XLfit.
(§3) Parameters calculated to describe both the potency as well as the agonistic activity of each test compound on the receptors were:
(§4) EC50, a concentration resulting in a half-maximal elevation of cAMP levels, reflecting the potency of the test compound.

[2] = target: T2, human GIP R (Homo sapiens, UniProt P48546); assay: cAMP induction in HEK293 cells expressing human GIP R (AlphaScreen cAMP kit)
T2 construct: expressed in transfected cells
T2 sequence (P48546 22-466): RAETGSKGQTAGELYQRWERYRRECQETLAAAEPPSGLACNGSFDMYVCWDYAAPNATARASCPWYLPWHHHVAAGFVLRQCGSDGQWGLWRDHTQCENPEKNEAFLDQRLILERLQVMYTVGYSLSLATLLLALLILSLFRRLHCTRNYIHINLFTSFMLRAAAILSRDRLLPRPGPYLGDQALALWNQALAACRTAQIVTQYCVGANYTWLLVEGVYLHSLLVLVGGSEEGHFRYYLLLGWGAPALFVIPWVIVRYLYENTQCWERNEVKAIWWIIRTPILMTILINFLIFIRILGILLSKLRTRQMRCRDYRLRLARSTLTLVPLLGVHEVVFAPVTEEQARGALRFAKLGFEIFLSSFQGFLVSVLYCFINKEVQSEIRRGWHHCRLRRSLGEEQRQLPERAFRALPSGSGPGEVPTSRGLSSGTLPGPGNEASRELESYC
Experimental: as §1, §2, §3, §4

[3] = target: T3, human GLP-1 R (Homo sapiens, UniProt P43220); assay: cAMP induction in HEK293 cells expressing human GLP-1 R (AlphaScreen cAMP kit); details: average EC50, cAMP, HEK293 cells expressing human GLP-1 R, read-out: GLP1 R (EC50 in nM)
T3 construct: expressed in transfected cells
T3 sequence (P43220 24-463): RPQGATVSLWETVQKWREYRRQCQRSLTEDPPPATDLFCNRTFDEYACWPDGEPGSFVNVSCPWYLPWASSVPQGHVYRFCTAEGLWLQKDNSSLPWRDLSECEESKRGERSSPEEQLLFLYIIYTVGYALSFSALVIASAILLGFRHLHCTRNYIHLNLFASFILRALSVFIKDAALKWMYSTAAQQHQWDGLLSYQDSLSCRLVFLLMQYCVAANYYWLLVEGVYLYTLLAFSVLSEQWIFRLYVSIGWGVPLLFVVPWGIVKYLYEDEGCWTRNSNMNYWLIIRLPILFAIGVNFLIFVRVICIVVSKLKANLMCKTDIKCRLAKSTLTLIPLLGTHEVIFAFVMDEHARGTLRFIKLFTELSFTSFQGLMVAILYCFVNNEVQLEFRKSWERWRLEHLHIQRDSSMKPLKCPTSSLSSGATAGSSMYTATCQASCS

[4] = GIP R (EC50 in nM), Table 2, average EC50, cAMP
[5] = GIP R (EC50 in nM), Table 2b (most comprehensive data), average EC50, cAMP
[6] = Table 2b (most comprehensive data)

SMILES	EC50 ([1]; Table 2b (most comprehensive data), average EC50, cAMP, HEK293 cells expressing human GCG R, read-out: GCG R (EC50 in nM))	EC50 ([2]; Table 2b (most comprehensive data), average EC50, cAMP, read-out: GIP R (EC50 in nM))	EC50 [1]	EC50 ([3]; Table 2)	EC50 [2, 4]	EC50 [2, 5]	EC50 [3, 6]
CCCCCCCCCCCCCCCCCC(=O)N[C@@H](CCC(=O)NCCOCCOCC(=O)NCCOCCOCC(=O)NCCCC[C@H](NC(=O)[C@H](CCCCN)NC(=O)[C@H](CCC(=O)O)NC(=O)[C@H](CC(C)C)NC(=O)[C@H](Cc1ccc(O)cc1)NC(=O)[C@@H](NC(=O)[C@H](CO)NC(=O)[C@H](Cc1ccc(O)cc1)NC(=O)[C@H](CC(=O)O)NC(=O)[C@H](CO)NC(=O)[C@@H](NC(=O)[C@H](Cc1ccccc1)NC(=O)[C@@H](NC(=O)CNC(=O)[C@H](CCC(N)=O)NC(=O)C(C)(C)NC(=O)[C@@H](N)Cc1ccc(O)cc1)[C@@H](C)O)[C@@H](C)O)[C@@H](C)CC)C(=O)N[C@@H](C)C(=O)N[C@@H](C)C(=O)N[C@@H](CCCCN)C(=O)N[C@@H](CCC(=O)O)C(=O)N[C@@H](Cc1ccccc1)C(=O)N[C@H](C(=O)N[C@@H](CCC(=O)O)C(=O)N[C@@H](Cc1c[nH]c2ccccc12)C(=O)N[C@@H](CC(C)C)C(=O)N[C@@H](CC(C)C)C(=O)N[C@@H](CO)C(=O)N[C@@H](C)C(=O)NCC(=O)N1CCC[C@H]1C(=O)N[C@@H](CO)C(=O)N[C@@H](CO)C(=O)NCC(=O)N[C@@H](C)C(=O)N1CCC[C@H]1C(=O)N1CCC[C@H]1C(=O)N1CCC[C@H]1C(=O)N[C@@H](CO)C(N)=O)C(C)C)C(=O)O [Compound 37] (H-Y[Aib]QGTFTSDYSIYLEKK([AEEA-AEEA-γGlu-Stearoyl])AAKEFVEWLLSAGPSSGAPPPS-NH2)	0.014 nM	0.018 nM	–	–	–	–	–
CC[C@H](C)[C@H](NC(=O)[C@H](CO)NC(=O)[C@H](Cc1ccc(O)cc1)NC(=O)[C@H](CC(=O)O)NC(=O)[C@H](CO)NC(=O)[C@@H](NC(=O)[C@H](Cc1ccccc1)NC(=O)[C@@H](NC(=O)CNC(=O)[C@H](CCC(N)=O)NC(=O)C(C)(C)NC(=O)[C@@H](N)Cc1ccc(O)cc1)[C@@H](C)O)[C@@H](C)O)C(=O)N[C@@H](Cc1ccc(O)cc1)C(=O)N[C@@H](CC(C)C)C(=O)N[C@@H](CC(=O)O)C(=O)N[C@@H](CO)C(=O)N[C@@H](CCCCN)C(=O)N[C@@H](C)C(=O)N[C@@H](C)C(=O)N[C@@H](Cc1c[nH]cn1)C(=O)N[C@@H](CC(=O)O)C(=O)N[C@@H](Cc1ccccc1)C(=O)N[C@H](C(=O)N[C@@H](CCC(=O)O)C(=O)N[C@@H](Cc1c[nH]c2ccccc12)C(=O)N[C@@H](CC(C)C)C(=O)N[C@@H](CC(C)C)C(=O)N[C@@H](CO)C(=O)N[C@@H](C)C(N)=O)C(C)C [Compound 5] (HELM PEPTIDE1{Y.[Aib].Q.G.T.F.T.S.D.Y.S.I.Y.L.D.S.K.A.A.H.D.F.V.E.W.L.L.S.A.[am]}$$$$V2.0)	–	–	0.065 nM	0.0092 nM	0.17 nM	0.009 nM	–
CCCCCCCCCCCCCCCC(=O)N[C@@H](CCC(=O)NCCCC[C@H](NC(=O)[C@H](CCC(=O)O)NC(=O)[C@H](CC(C)C)NC(=O)[C@H](Cc1ccc(O)cc1)NC(=O)[C@@H](NC(=O)[C@H](CO)NC(=O)[C@H](Cc1ccc(O)cc1)NC(=O)[C@H](CC(=O)O)NC(=O)[C@H](CO)NC(=O)[C@@H](NC(=O)[C@H](Cc1ccccc1)NC(=O)[C@@H](NC(=O)CNC(=O)[C@H](CCC(N)=O)NC(=O)C(C)(C)NC(=O)[C@@H](N)Cc1ccc(O)cc1)[C@@H](C)O)[C@@H](C)O)[C@@H](C)CC)C(=O)N[C@@H](CCCCN)C(=O)N[C@@H](C)C(=O)N[C@@H](C)C(=O)N[C@@H](CCCCN)C(=O)N[C@@H](CCC(=O)O)C(=O)N[C@@H](Cc1ccccc1)C(=O)N[C@H](C(=O)N[C@@H](CCC(=O)O)C(=O)N[C@@H](Cc1c[nH]c2ccccc12)C(=O)N[C@@H](CC(C)C)C(=O)N[C@@H](CC(C)C)C(=O)N[C@@H](CO)C(=O)N[C@@H](C)C(N)=O)C(C)C)C(=O)O [Compound 24] (HELM PEPTIDE1{Y.[Aib].Q.G.T.F.T.S.D.Y.S.I.Y.L.E.K.K.A.A.K.E.F.V.E.W.L.L.S.A.[am]}|PEPTIDE2{[CCCCCCCCCCCCCCCC(=O)[*:2]].[gGlu]}$PEPTIDE1,PEPTIDE2,16:R3-2:R2$$$V2.0)	–	–	0.28 nM	0.091 nM	0.1 nM	0.1 nM	0.091 nM
CC[C@H](C)[C@H](NC(=O)[C@H](CO)NC(=O)[C@H](Cc1ccc(O)cc1)NC(=O)[C@H](CC(=O)O)NC(=O)[C@H](CO)NC(=O)[C@@H](NC(=O)[C@H](Cc1ccccc1)NC(=O)[C@@H](NC(=O)CNC(=O)[C@H](CCC(N)=O)NC(=O)C(C)(C)NC(=O)[C@@H](N)Cc1ccc(O)cc1)[C@@H](C)O)[C@@H](C)O)C(=O)N[C@@H](Cc1ccc(O)cc1)C(=O)N[C@@H](CC(C)C)C(=O)N[C@@H](CC(=O)O)C(=O)N[C@@H](CCC(=O)O)C(=O)N[C@@H](CCCCN)C(=O)N[C@@H](C)C(=O)N[C@@H](C)C(=O)N[C@@H](CCCCN)C(=O)N[C@@H](CC(=O)O)C(=O)N[C@@H](Cc1ccccc1)C(=O)N[C@H](C(=O)N[C@@H](CCC(=O)O)C(=O)N[C@@H](Cc1c[nH]c2ccccc12)C(=O)N[C@@H](CC(C)C)C(=O)N[C@@H](CC(C)C)C(=O)N[C@@H](CO)C(=O)N[C@@H](C)C(N)=O)C(C)C [Compound 17] (HELM PEPTIDE1{Y.[Aib].Q.G.T.F.T.S.D.Y.S.I.Y.L.D.E.K.A.A.K.D.F.V.E.W.L.L.S.A.[am]}$$$$V2.0)	–	–	0.16 nM	0.011 nM	0.091 nM	0.013 nM	0.16 nM
CC(C)C[C@H](NC(=O)[C@H](CC(C)C)NC(=O)[C@H](Cc1c[nH]c2ccccc12)NC(=O)[C@H](CCC(=O)O)NC(=O)[C@@H](NC(=O)[C@H](Cc1ccccc1)NC(=O)[C@H](CC(=O)O)NC(=O)[C@H](Cc1c[nH]cn1)NC(=O)[C@H](C)NC(=O)[C@H](C)NC(=O)[C@H](CCCCN)NC(=O)[C@H](CO)NC(=O)[C@H](CC(=O)O)NC(=O)[C@H](CC(C)C)NC(=O)[C@H](Cc1ccc(O)cc1)NC(=O)[C@H](CCCCN)NC(=O)[C@H](CO)NC(=O)[C@H](Cc1ccc(O)cc1)NC(=O)[C@H](CC(=O)O)NC(=O)[C@H](CO)NC(=O)[C@@H](NC(=O)[C@H](Cc1ccccc1)NC(=O)[C@@H](NC(=O)CNC(=O)[C@H](CCC(N)=O)NC(=O)C(C)(C)NC(=O)[C@@H](N)Cc1ccc(O)cc1)[C@@H](C)O)[C@@H](C)O)C(C)C)C(=O)N[C@@H](CCCNC(=N)N)C(=O)N[C@@H](C)C(N)=O [Compound 3] (HELM PEPTIDE1{Y.[Aib].Q.G.T.F.T.S.D.Y.S.K.Y.L.D.S.K.A.A.H.D.F.V.E.W.L.L.R.A.[am]}$$$$V2.0)	–	–	0.022 nM	0.015 nM	0.13 nM	0.015 nM	0.022 nM
